Tests used:
SCC-61 cells = settings: cited from earlier work
Ex vivo serum stability = assay type: in vitro ADME; settings: human serum, 37° C., after 120 min of tracer synthesis
Description: The ex vivo serum stability of [^18F]KS1 and [^18F]KS2 were analyzed in human serum samples, following previously published methods (Sai et al., Peptide-based PET imaging of the tumor restricted IL13RA2 biomarker. Oncotarget 2017, 5; Sattiraju et al., IL13RA2 targeted alpha particle therapy against glioblastoma. Journal of Nuclear Medicine 2016, 57 (supplement 2), 634; Wang et al., Evaluation of F-18-labeled amino acid derivatives and [18F]FDG as PET probes in a brain tumor-bearing animal model. Nuclear Medicine and Biology 2005, 32 (4), 367-375). Briefly, radiotracer was added to the human serum sample, and incubated at 37° C. Radioactive serum mixture was injected into the QC-HPLC system at 5 min, 30 min, 1 h, 1.5 h, 2 h, 2.5 h, and 3 h post radiotracer synthesis. Radiolysis through defluorination and/or oxidation of the radiotracers (if any) can be seen as new radiochemical peaks at different retention times (Rt) than the original product peak (Jin et al., A promising F-18 labeled PET radiotracer (-)-[18F]VAT for assessing the VAChT in vivo. Journal of Nuclear Medicine 2015, 56 (supplement 3); Koglin et al., [F-18]BAY 85-8050: A novel tumor specific probe for PET imaging-Preclinical results. Journal of Nuclear Medicine 2010, 51 (supplement 2), 1535; […] et al., Imaging COX-2 expression in cancer using PET/SPECT radioligands: current status and future directions. […]

PC3 cell line = assay: MTT cytotoxicity IC50 assay, PC3; assay type: cell-based, human
Description: (§1) The cells were seeded at density 5×10^3 cells/well. After 24 h pre-incubation period, cells were treated with 0.01 mM to 2.0 mM of freshly prepared KS1 and KS2 along with ascorbate (n=3) for 48 h. 0.2% of DMSO served as vehicle control. After 48 h, the solutions were removed from all plates and MTT assays performed following the published protocols. IC50 values are presented as mean±SD from at least three independent experiments.
(§2) There is growing evidence for a therapeutic role of ascorbate against several cancers (Creagan et al., Failure of High-Dose Vitamin C (Ascorbic Acid) Therapy to Benefit Patients with Advanced Cancer. New England Journal of Medicine 1979, 301 (13), 687-690; Chen et al., Pharmacologic ascorbic acid concentrations selectively kill cancer cells: action as a pro-drug to deliver hydrogen peroxide to tissues. Proceedings of the National Academy of Sciences of the United States of America 2005, 102 (38), 13604-13609; Prasad et al., High Doses of Multiple Antioxidant Vitamins: Essential Ingredients in Improving the Efficacy of Standard Cancer Therapy. Journal of the American College of Nutrition 1999, 18 (1), 13-25). Pharmacologic doses of ascorbate (oral and/or intravenous) could increase the effectiveness of cancer chemotherapy in many solid cancer therapies (López-Lizaro, Dual role of hydrogen peroxide in cancer: Possible relevance to cancer chemoprevention and therapy. Cancer Letters 2007, 252 (1), 1-8; Li et al., New Developments and Novel Therapeutic Perspectives for Vitamin C. The Journal of Nutrition 2007, 137 (10), 2171-2184; Klimant et al., Intravenous vitamin C in the supportive care of cancer patients: a review and rational approach. Current Oncology 2018, 25 (2), 139-148. The primary objective of this experiment was to determine the cytotoxic effects of KS1 at pharmacological concentrations. Cancer cell lines were selected based on their high ROS implications. […] These cell lines have been studied extensively with ascorbic acid treatments (Schoenfeld et al., O(2)(·−) and H(2)O(2)-Mediated Disruption of Fe Metabolism Causes the Differential Susceptibility of NSCLC and GBM Cancer Cells to Pharmacological Ascorbate. Cancer Cell 2017, 31 (4), 487-500.e8; Chen et al., Modulators of Redox Metabolism in Head and Neck Cancer. Antioxidants & Redox Signaling 2017, 29 (16), 1660-1690; Khandrika et al., Oxidative stress in prostate cancer. Cancer Lett 2009, 282 (2), 125-136.

SCC-61 cell line (HNSCC) = assay: MTT cytotoxicity IC50 assay, SCC-61; assay type: cell-based, human; settings: SCC-61, MTT
Description: as §1, §2

[1] = tested on: SCC-61 and rSCC-61 cell lines; assay: MitoSOX fluorescence ROS assay, with or without SOD blocker; assay type: cell-based, human
Description: As a first-line tool to screen KS1 and KS2: SCC-61 has higher intracellular ROS than rSCC-61. MitoSOX is a mitochondrion-targeted dihydroethidium based derivative that primarily detects ROS (superoxide anion) produced within mitochondria. Mitosox assays without any ligands were used as controls. The two cell lines were treated with KS1, KS2 and ascorbate (10.0 μM) and incubated for an hour. MitoSOX (1.0 μM) in phenol red-free DMEM/F12 media was added and incubated for an additional 10 min. The cells were then washed with PBS and imaged in the same media.
In addition to testing KS1 with the MitoSOX assay, we compared our results with no ligand controls and ascorbate as a reference standard. The two cell lines were treated with KS1 and ascorbate (10.0 μM) and incubated for an hour. MitoSOX (1.0 μM) in phenol red-free DMEM/F12 media was added and incubated for an additional 10 min. The cells were then washed with PBS and imaged in the same media. Ligand specificity is commonly determined by pretreating the cells with high concentrations of blockers. Superoxide dismutase (SOD), an enzyme that selectively suppresses accumulation of ROS-superoxide peroxide anions, was added as blocker (1.0 mM) 60 min before the treatment of KS1 (Bielski et al., Chemistry of ascorbic acid radicals. in Ascorbic Acid: Chemistry, Metabolism, and Uses. Chapter. 1982; 4:81-100). Fluorescence was subsequently measured and its intensity was quantified in f.u (fluorescence units).
Ligand specificity is commonly determined by pretreating the cells with high concentrations of blockers. We used superoxide dismutase (SOD), an enzyme that selectively suppresses accumulation of ROS-superoxide peroxide anions (Bielski et al., Chemistry of ascorbic acid radicals. in Ascorbic Acid: Chemistry, Metabolism, and Uses. Chapter 1982, 4, 81-100). The same MitoSOX assay with KS1 and KS2 (10 μM) was performed by pretreating the SCC-61 cells with SOD (1.0 mM) for 60 min.

[2] = tested on: SCC-61 and PC3 cell lines; assay: DCFDA intracellular ROS detection assay; assay type: cell-based, human; settings: 2 mM, 7 h, compared to 100 μM
Description: For this, we used dichlorofluorescin diacetate (DCFDA) intracellular ROS detection assay kit and followed manufacture recommended protocol (ZHELEV et al., Docosahexaenoic Acid Sensitizes Leukemia Lymphocytes to Barasertib and Everolimus by ROS-dependent Mechanism Without Affecting the Level of ROS and Viability of Normal Lymphocytes. Anticancer Research 2016, 36 (4), 1673-1682). We studied two patient-derived tumor cell lines: SCC-61, […], and PC3, prostate cancer cell line. The maximum allowed mass for a typical clinical PET radiotracer is <100 μM (Schwarz et al., Radiochemistry and radiopharmacology. LIC-Nuclear Medicine and PET/CT: Technology and Techniques 2016, 11, 77), so we chose 10-100 μM as our concentration range for tracer-level assays. The lowest reported pharmacologic dose for ascorbate is 2.0 mM (Levine et al., Vitamin C: a concentration-function approach yields pharmacology and therapeutic discoveries. Adv Nutr 2011, 2 (2), 78-88), so we chose this dose for our pharmacological assays. We chose the ligand incubation times based on the maximum tracer uptake time (˜2 h) for a typical [^18F]-based PET radiotracer injection (Schlyer, PET tracers and radiochemistry. ANNALS-ACADEMY OF MEDICINE SINGAPORE 2004, 33 (2), 146-154).
Pharmacologic doses of ascorbate generates ROS, including H2O2 and trace amounts of labile iron extracellularly and/or intracellularly (Nauman et al., Systematic Review of Intravenous Ascorbate in Cancer Clinical Trials. Antioxidants (Basel) 2018, 7 (7), 89). We performed the same DCFDA assay with KS1 and ascorbate at pharmacological doses of 2 mM for 7 h in both SCC-61 and PC3 cell lines. ROS production was analyzed and reported (FIG. 11) using the similar measurements as above. Ligand specificity is commonly determined by pretreating the cells with high concentrations of blockers. We used superoxide dismutase (SOD), an enzyme that selectively suppresses accumulation of superoxide peroxide anions (Bielski et al., Chemistry of ascorbic acid radicals. in Ascorbic Acid: Chemistry, Metabolism, and Uses. Chapter 1982, 4, 81-100).

For `C#Cc1cccc(Nc2ncnc3cc(OCCOC)c(OCCOC)cc23)c1` [erlotinib], the IC50 (SCC-61 cells) is given as over 50 µM.
`O=C1O/C(=C/Cc2ccc(OCC[18F])cc2)C(O)=C1O` [[^18F]KS2] gave an intact in serum (Ex vivo serum stability) of about 80%.
For `O=C1O/C(=C/Cc2ccc(OCCF)cc2)C(O)=C1O` [KS2], the IC50 (PC3 cell line; Example 7, 48 h) was 251 µM, the IC50 (SCC-61 cell line (HNSCC); Example 7, 48 h) was 166 µM and the “higher selectivity between the two cell lines compared to ascorbate selectivity” value ([1]; Example 4, SCC-61 vs rSCC-61, MitoSOX fluorescence) was about 10 fold. For the same compound, the “decrease of fluorescent uptake by SOD pretreatment” value ([1]; SCC-61 cells, SOD (1.0 mM) for 60 min) was about 30%.
In the case of `O=C1O[C@H]([C@@H](O)CO)C(O)=C1O` [ascorbate, ascorbic acid, reference compound], the IC50 (PC3 cell line; Homo sapiens, PC-3, Example 7, 48 h) is reported as 1120 µM, the IC50 (PC3 cell line; Homo sapiens, PC-3, Example 13) is reported as 1410 µM and the “fluorescence intensity (ROS generation) at pharmacological dose” value [2] is reported as “also increased, but not as with KS1”. For the same compound, the IC50 (SCC-61 cell line (HNSCC); Homo sapiens, Example 7, 48 h) was 815 µM, the IC50 (SCC-61 cell line (HNSCC); Homo sapiens, Example 13) was 1380 µM and the “MitoSOX fluorescence in SCC-61 compared to rSCC-61 cells” value ([1]; 10.0 μM, 1 h incubation) was “higher fluorescence”.
